Data from patent US8937096B2, “Use of benzo-fused heterocyle sulfamide derivatives for the treatment of mania and bipolar disorder” (priority 2005, dated 2015).
Read-outs that look alike come from different tables or passages of the source.

Tests used:
[1] = tested on: stressed and non-stressed animals; assay: Resident/Intruder Assay (Chronic Social Stress Assay); format: in vivo; set-up: Locomotor Mean ± SD / Rearing Mean ± SD / Sniffing Down Mean ± SD / Sniffing Up Mean ± SD: unit not given here
Description: The behavioral resident/intruder assay is used to screen compounds for anti-depressant-like activity.

CH3/HeJ mice = assay: Tail Suspension Test (Acute); format: in vivo, mouse; settings: for ED50: Mus musculus, po, 7 min; for Immobility Emax % of C / Mobility Emax % of C: 7-min session
Protocol: In the tail suspension test (TST) for evaluating compounds for anti-depressant activity, mice are suspended by their tails to a metal or plastic rod using clip or scotch tape. The test is usually quite short, 5-7 min, and the amount of time the mice spend immobile is recorded either manually or with an automated device. Agents which have antidepressant activity, decrease the duration of immobility of mice in this test.
The basic apparatus for the tail suspension assay consisted of a yellow plastic chamber (91×45×10 cm) divided for four arenas 25, 20, 20 and 25 cm wide separated by yellow plastic walls 0.75 cm thick. Mice were suspended by their tails using a rubber clip (7 cm long) attached to the plastic rod that was placed on the top of a testing chamber half way through its deep dimension. Each experimental session was videotaped and analyzed for four animals in the real time by computer software (“Depression Scan” Clever Sys Inc.). The computer justification of immobility was calibrated with the use of animals dosed with lorazepam while justification of movement was calibrated with the high dose of desipramine treated animals. […] The settings were adjusted separately for dark (CH3/HeJ and C57BI/6J strains) and white mice (Balb/cJ and A/J strains). A yellow background was used for dark mice and a blue background was used to record movements of white mice.
The ability of a test compound to decrease the duration of immobility, or increase mobility was measured using the TST procedure described above.
Data were analyzed using GraphPad Prism software (GraphPad Software, Inc. San Diego, Calif.). For the comparison of the effect of different doses for various drugs on immobility in the TST one-way analyses of variance (ANOVA) were used followed by Dunnett's multiple comparison test. […] The ED50 and Emax values were compared using two-way ANOVA and Bonferroni post-hoc test.
Positive controls included duloxetine (DLX), venlafaxine (VLX) and desipramine (DMI) which were dissolved in 0.5% methylcellulose and lorazepam (LOR) which was suspended in 0.5% of methylcellulose in water by sonication. All drugs and vehicles were administered orally (p.o.) by gavage in a volume of 10 mL/kg.
The mice were ordered 5 weeks old and at the beginning of experiment their weight was 20±5 g. Animals were housed in groups of four in plastic cages at an ambient temperature of 21° C. to 23° C. with an automated 12/12 hours light/dark cycle and access to water and a commercial rodent food ad libitum.
Each experiment consisted of seven treatment groups with four animals per group. A total of 28 animals per experiment were used. Every two consecutive experiments (1 & 2, 3 & 4, 5 & 6 and 7 & 8) were exact replicas of each other. […] One treatment group of four animals in each experiment was a vehicle treated group. In addition to the vehicle treated group, the effects of DMI at 6 mg/kg, 12 mg/kg, 30 mg/kg, 60 mg/kg and 120 mg/kg and LOR at 5 mg/kg were tested in experiments 1 and 2. […] In experiments 5 and 6 the effects of DLX at 6 mg/kg, 12 mg/kg, 30 mg/kg, 60 mg/kg, 120 mg/kg and LOR at 5 mg/kg were tested.

[2] = non-stressed, 10 mg/kg p.o., week 1
[3] = non-stressed, 10 mg/kg p.o., week 5
[4] = stressed, 10 mg/kg p.o., week 1
[5] = stressed, 10 mg/kg p.o., week 5
[6] = non-stressed, 60 mg/kg p.o., week 1
[7] = non-stressed, 60 mg/kg p.o., week 5
[8] = non-stressed, 120 mg/kg p.o., week 1
[9] = non-stressed, 120 mg/kg p.o., week 5
[10] = stressed, 60 mg/kg p.o., week 1
[11] = stressed, 60 mg/kg p.o., week 5
[12] = stressed, 120 mg/kg p.o., week 1
[13] = stressed, 120 mg/kg p.o., week 5

With `COc1ccc(C(CN(C)C)C2(O)CCCCC2)cc1` (stereo not shown) [Venlafaxine, venlafaxine, reference compound] the “Forced Swim Test: Immobility during 5 min: Week 5 Mean ± SD” value (shortened to “Forced Swim Test … Week 5 Mean ± SD”) ([1]; non-stressed, 10 mg/kg p.o.) was 181.8 ± 27.6, the “Sucrose Intake Mean ± SD Week 3” value ([1]; non-stressed, 10 mg/kg p.o.) was 88.4 ± 9.1 and the “Sucrose Intake Mean ± SD Week 4” value ([1]; non-stressed, 10 mg/kg p.o.) was 91.5 ± 5.6. For the same compound, the “Sucrose Intake Mean ± SD Week 5” value ([1]; non-stressed, 10 mg/kg p.o.) was 87.9 ± 15.0, the “Locomotor Mean ± SD” value [1, 2] was 9094.9 ± 1832.7 and the “Rearing Mean ± SD” value [1, 2] was 48.3 ± 11.2. For the same compound, the “Sniffing Down Mean ± SD” value [1, 2] was 27.1 ± 5.2, the “Sniffing Up Mean ± SD” value [1, 2] was 43.3 ± 8.9 and the “Locomotor Mean ± SD” value [1, 3] was 8078.6 ± 1665.2. For the same compound, the “Rearing Mean ± SD” value [1, 3] was 40.1 ± 8.9, the “Sniffing Down Mean ± SD” value [1, 3] was 27 ± 4.7 and the “Sniffing Up Mean ± SD” value [1, 3] was 38.6 ± 7.7. The “Forced Swim Test … Week 5 Mean ± SD” value ([1]; stressed, 10 mg/kg p.o.) was 190.4 ± 36.8, the “Sucrose Intake Mean ± SD Week 3” value ([1]; stressed, 10 mg/kg p.o.) was 74.5 ± 16.7 and the “Sucrose Intake Mean ± SD Week 4” value ([1]; stressed, 10 mg/kg p.o.) was 76.1 ± 18.2. For the same compound, the “Sucrose Intake Mean ± SD Week 5” value ([1]; stressed, 10 mg/kg p.o.) was 73.3 ± 17.6, the “Locomotor Mean ± SD” value [1, 4] was 6233.6 ± 1087.2 and the “Rearing Mean ± SD” value [1, 4] was 30.8 ± 6.6. The “Sniffing Down Mean ± SD” value [1, 4] was 14.9 ± 3.5, the “Sniffing Up Mean ± SD” value [1, 4] was 28.6 ± 6.5 and the “Locomotor Mean ± SD” value [1, 5] was 6250.1 ± 789.2. The “Rearing Mean ± SD” value [1, 5] was 35.1 ± 7.4, the “Sniffing Down Mean ± SD” value [1, 5] was 18.3 ± 3.6 and the “Sniffing Up Mean ± SD” value [1, 5] was 33.1 ± 7.5. For the same compound, the ED50 (CH3/HeJ mice; read-out: Immobility ED50) was 25 mg/kg, the ED50 (CH3/HeJ mice; read-out: Mobility ED50) was 21.1 mg/kg and the “Immobility Emax % of C” value (CH3/HeJ mice; p.o., CH3/HeJ mice) was 63.7 % of C. The “Mobility Emax % of C” value (CH3/HeJ mice; p.o., CH3/HeJ mice) was 412.6 % of C.
`NS(=O)(=O)NC[C@H]1COc2cc(Cl)ccc2O1` [Compound #8, (2S)-(−)-N-(6-Chloro-2,3-dihydro-benzo[1,4]dioxin-2-ylmethyl)-sulfamide] was tested, and the “activity in the resident/intruder assay” value ([1]; 60 and 120 mg/kg p.o.) was “active in the resident/intruder assay”, the “Forced Swim Test … Week 5 Mean ± SD” value ([1]; non-stressed, 60 mg/kg p.o.) was 164.3 ± 25.3 and the “Sucrose Intake Mean ± SD Week 3” value ([1]; non-stressed, 60 mg/kg p.o.) was 90.9 ± 3.5. For the same compound, the “Sucrose Intake Mean ± SD Week 4” value ([1]; non-stressed, 60 mg/kg p.o.) was 92.3 ± 1.4, the “Sucrose Intake Mean ± SD Week 5” value ([1]; non-stressed, 60 mg/kg p.o.) was 88.9 ± 7.4 and the “Locomotor Mean ± SD” value [1, 6] was 8288.6 ± 2117.5. The “Rearing Mean ± SD” value [1, 6] was 49.6 ± 8.7, the “Sniffing Down Mean ± SD” value [1, 6] was 20.9 ± 3.3 and the “Sniffing Up Mean ± SD” value [1, 6] was 44.1 ± 9.4. For the same compound, the “Locomotor Mean ± SD” value [1, 7] was 7922.9 ± 1476, the “Rearing Mean ± SD” value [1, 7] was 37.4 ± 11.5 and the “Sniffing Down Mean ± SD” value [1, 7] was 23.5 ± 6.4. The “Sniffing Up Mean ± SD” value [1, 7] was 33.4 ± 11.2, the “Forced Swim Test … Week 5 Mean ± SD” value ([1]; non-stressed, 120 mg/kg p.o.) was 136.7 ± 34.9 and the “Sucrose Intake Mean ± SD Week 3” value ([1]; non-stressed, 120 mg/kg p.o.) was 83.6 ± 22.1. For the same compound, the “Sucrose Intake Mean ± SD Week 4” value ([1]; non-stressed, 120 mg/kg p.o.) was 91.3 ± 4.6, the “Sucrose Intake Mean ± SD Week 5” value ([1]; non-stressed, 120 mg/kg p.o.) was 89.3 ± 5.1 and the “Locomotor Mean ± SD” value [1, 8] was 8056.6 ± 867.2. For the same compound, the “Rearing Mean ± SD” value [1, 8] was 42 ± 10.6, the “Sniffing Down Mean ± SD” value [1, 8] was 22.8 ± 3.7 and the “Sniffing Up Mean ± SD” value [1, 8] was 37.6 ± 8.4. For the same compound, the “Locomotor Mean ± SD” value [1, 9] was 8648.3 ± 1060.9, the “Rearing Mean ± SD” value [1, 9] was 36.5 ± 6.3 and the “Sniffing Down Mean ± SD” value [1, 9] was 25.5 ± 4.1. The “Sniffing Up Mean ± SD” value [1, 9] was 33.5 ± 5.9, the “Forced Swim Test … Week 5 Mean ± SD” value ([1]; stressed, 60 mg/kg p.o.) was 175.1 ± 29.5 and the “Sucrose Intake Mean ± SD Week 3” value ([1]; stressed, 60 mg/kg p.o.) was 92.1 ± 3.2. For the same compound, the “Sucrose Intake Mean ± SD Week 4” value ([1]; stressed, 60 mg/kg p.o.) was 89.5 ± 6.9, the “Sucrose Intake Mean ± SD Week 5” value ([1]; stressed, 60 mg/kg p.o.) was 92.4 ± 4.5 and the “Locomotor Mean ± SD” value [1, 10] was 5858.5 ± 708.2. The “Rearing Mean ± SD” value [1, 10] was 26.5 ± 6.1, the “Sniffing Down Mean ± SD” value [1, 10] was 13 ± 3.3 and the “Sniffing Up Mean ± SD” value [1, 10] was 25 ± 7.3. The “Locomotor Mean ± SD” value [1, 11] was 7080.9 ± 1238.7, the “Rearing Mean ± SD” value [1, 11] was 32.8 ± 10.3 and the “Sniffing Down Mean ± SD” value [1, 11] was 24.8 ± 5.7. For the same compound, the “Sniffing Up Mean ± SD” value [1, 11] was 30.6 ± 11.1, the “Forced Swim Test … Week 5 Mean ± SD” value ([1]; stressed, 120 mg/kg p.o.) was 128.3 ± 37.4 and the “Sucrose Intake Mean ± SD Week 3” value ([1]; stressed, 120 mg/kg p.o.) was 76.1 ± 20.8. For the same compound, the “Sucrose Intake Mean ± SD Week 4” value ([1]; stressed, 120 mg/kg p.o.) was 75.5 ± 20.6, the “Sucrose Intake Mean ± SD Week 5” value ([1]; stressed, 120 mg/kg p.o.) was 87.4 ± 7.9 and the “Locomotor Mean ± SD” value [1, 12] was 6168.3 ± 1132.1. For the same compound, the “Rearing Mean ± SD” value [1, 12] was 29.3 ± 7, the “Sniffing Down Mean ± SD” value [1, 12] was 13 ± 3.6 and the “Sniffing Up Mean ± SD” value [1, 12] was 27.5 ± 6.1. For the same compound, the “Locomotor Mean ± SD” value [1, 13] was 6444 ± 1010.3, the “Rearing Mean ± SD” value [1, 13] was 30.1 ± 6.4 and the “Sniffing Down Mean ± SD” value [1, 13] was 22.5 ± 4.1. For the same compound, the “Sniffing Up Mean ± SD” value [1, 13] was 30.4 ± 7.5, the “doses at which effects were statistically significant vs vehicle” value (CH3/HeJ mice; p.o., CH3/HeJ mice) was 12 mg/kg, 60 mg/kg, and 120 mg/kg and the “Immobility Emax % of C” value (CH3/HeJ mice; p.o., CH3/HeJ mice) was 22.2±6.1 % of C. The “Mobility Emax % of C” value (CH3/HeJ mice; p.o., CH3/HeJ mice) was 95.6 % of C, the “Immobility Emax % of C” value (CH3/HeJ mice; p.o., CH3/HeJ mice, listed as Cmpd #8) was 22.2 % of C and the “immobility time and mobility time” value (CH3/HeJ mice; p.o., CH3/HeJ mice, 7-min testing session) was “decreased immobility time and increased mobility time”.
